Results on 20 compounds are retold here after US10479795B2 (Incyte Corporation, priority 2016, dated 2019).

Where a name gives a salt, the structure may show the parent alone. Read-outs that look alike come from different tables or passages of the source.

The subject of test [1] is Phosphorylated Ribosomal Protein S6 (RPS6). As to the kind of experiment: THP-1 RPS6 ELISA Assay. Format: cell-based, Human. The settings on record: THP-1 cells, read-out: PI3Kγ_THP1_RPS6_ELISA IC50. The procedure:
To measure the Phosphorylated Ribosomal Protein S6 (RPS6) in cell lysates, THP-1 cells (Human Acute Monocytic Leukemia) are purchased from ATCC (Manassas, Va.) and maintained in RPMI with 10% FBS (Gibco/Life Technologies, Carlsbad, Calif.). For the assay, THP-1 cells are serum starved overnight in RPMI, then plated in RPMI (2×10^5 cells/well in 90 μL) into 96-well flat-bottom tissue culture treated plates (Corning, Corning, N.Y.), in the presence or absence of a concentration range of test compounds. Covered plates are incubated for 2 hours at 37° C., 5% CO2 then treated with or without 10 nM MCP-1 (MYBioSource, San Diego, Calif.) for 15 minutes at 37° C., 5% CO2. Plates are centrifuged at 1600 RPM and supernatants are removed. Cells are lysed in Lysis Buffer (Cell Signaling, Danvers, Mass.) with Protease Inhibitor (Calbiochem/EMD, Germany), PMSF (Sigma, St Louis Mo.), HALTS (Thermo Fisher, Rockford, Ill.) for 30 min on wet ice. Cell lysates are frozen at −80° C. before testing. The lysates are tested in the Human/Mouse/Rat Phospho-RPS6 ELISA (R&D Systems, Inc. Minn, Minn.). The plate is measured using a microplate reader (SpectraMax M5 —Molecular Devices, LLC Sunnyvale, Calif.) set to 450 nm with a wavelength correction of 540. IC50 determination is performed by fitting the curve of inhibitor percent inhibition versus the log of the inhibitor concentration using the GraphPad Prism 5.0 software.
For orientation: ELISA stands for enzyme-linked immunosorbent assay.

Test [2] has as its target PI3Kδ (p110δ/p85α) Recombinant Human Protein (Homo sapiens (Human), UniProt O00329). As to the kind of experiment: PI3Kδ Scintillation Proximity Assay. It is filed as biochemical. Put shortly:
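Recombinant human p110δ/p85α (3.4 nM) with 20 μM PIP2 and 2 μM ATP plus [γ-33P]ATP, in 20 mM MOPS pH 6.7, 10 mM MgCl2, 5 mM DTT, 0.03% CHAPS, 2% DMSO; 120 min at room temperature. Product captured on WGA SPA beads, scintillation counted; IC50 from percent-of-control curves.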
A general note: SPA uses beads or plates that emit light when radiolabelled molecules are held near them.

Test [3] has as its target PI3Kγ (p110γ) Recombinant Human Protein (Homo sapiens (Human), UniProt P48736). Kind of test: PI3K-γ Scintillation Proximity Assay. The conditions noted are these: read-out: PI3Kγ IC50. It is filed as biochemical. Put shortly:
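Recombinant human p110γ assayed at room temperature in 20 mM MOPS pH 6.7, 10 mM MgCl2, 5 mM DTT, 0.03% CHAPS, 2% DMSO, with 20 μM PIP2 and 2 μM ATP plus [γ-33P]ATP. Product captured on WGA SPA beads overnight and counted; IC50 fitted from % of solvent-control activity versus log inhibitor concentration.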

Sequence of PI3Kδ (p110δ/p85α) Recombinant Human Protein (O00329 whole entry): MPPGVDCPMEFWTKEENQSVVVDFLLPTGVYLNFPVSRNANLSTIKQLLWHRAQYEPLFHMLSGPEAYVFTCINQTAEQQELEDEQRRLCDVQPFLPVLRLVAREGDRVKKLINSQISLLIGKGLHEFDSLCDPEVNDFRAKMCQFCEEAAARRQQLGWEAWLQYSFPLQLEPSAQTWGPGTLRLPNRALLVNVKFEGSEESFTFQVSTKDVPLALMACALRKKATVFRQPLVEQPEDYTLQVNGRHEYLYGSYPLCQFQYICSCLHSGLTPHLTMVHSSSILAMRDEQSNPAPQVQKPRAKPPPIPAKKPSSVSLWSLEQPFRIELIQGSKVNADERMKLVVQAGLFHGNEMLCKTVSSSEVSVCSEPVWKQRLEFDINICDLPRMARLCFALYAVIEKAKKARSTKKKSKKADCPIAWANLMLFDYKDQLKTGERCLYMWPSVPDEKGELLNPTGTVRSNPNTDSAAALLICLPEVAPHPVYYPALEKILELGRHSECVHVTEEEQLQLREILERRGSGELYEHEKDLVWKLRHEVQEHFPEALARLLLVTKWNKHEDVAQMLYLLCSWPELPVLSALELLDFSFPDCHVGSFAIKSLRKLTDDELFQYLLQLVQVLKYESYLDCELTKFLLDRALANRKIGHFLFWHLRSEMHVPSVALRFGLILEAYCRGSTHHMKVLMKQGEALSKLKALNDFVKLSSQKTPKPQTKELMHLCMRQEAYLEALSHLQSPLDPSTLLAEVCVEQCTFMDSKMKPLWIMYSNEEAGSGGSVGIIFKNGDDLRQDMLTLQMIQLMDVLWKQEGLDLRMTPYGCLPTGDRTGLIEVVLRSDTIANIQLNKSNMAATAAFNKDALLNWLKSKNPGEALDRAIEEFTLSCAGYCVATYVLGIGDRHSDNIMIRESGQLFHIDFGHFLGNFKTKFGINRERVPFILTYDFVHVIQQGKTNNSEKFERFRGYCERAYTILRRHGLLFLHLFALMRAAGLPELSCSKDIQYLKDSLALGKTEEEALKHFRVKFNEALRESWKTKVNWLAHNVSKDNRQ
Sequence of PI3Kδ (p110δ/p85α) Recombinant Human Protein (P27986 whole entry partner): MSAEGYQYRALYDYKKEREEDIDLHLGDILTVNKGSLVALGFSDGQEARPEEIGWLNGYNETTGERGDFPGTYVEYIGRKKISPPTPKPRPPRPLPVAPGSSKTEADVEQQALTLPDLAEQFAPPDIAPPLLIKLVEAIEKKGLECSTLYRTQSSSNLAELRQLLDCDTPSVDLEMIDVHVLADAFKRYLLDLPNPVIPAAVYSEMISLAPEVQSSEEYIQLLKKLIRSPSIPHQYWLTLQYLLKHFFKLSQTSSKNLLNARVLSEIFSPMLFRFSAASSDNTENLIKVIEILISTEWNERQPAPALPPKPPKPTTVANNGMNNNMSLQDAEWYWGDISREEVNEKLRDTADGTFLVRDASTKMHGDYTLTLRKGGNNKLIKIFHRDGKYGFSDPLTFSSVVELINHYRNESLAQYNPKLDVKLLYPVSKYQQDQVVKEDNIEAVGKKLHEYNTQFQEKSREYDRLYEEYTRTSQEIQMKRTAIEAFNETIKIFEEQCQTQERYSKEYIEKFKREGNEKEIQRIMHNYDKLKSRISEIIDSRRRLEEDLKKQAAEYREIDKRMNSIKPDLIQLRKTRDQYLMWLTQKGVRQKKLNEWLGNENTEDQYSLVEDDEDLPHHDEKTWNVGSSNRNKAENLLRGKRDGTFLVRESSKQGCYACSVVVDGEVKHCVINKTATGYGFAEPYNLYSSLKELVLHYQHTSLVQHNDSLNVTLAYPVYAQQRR
Sequence of PI3Kγ (p110γ) Recombinant Human Protein (P48736 whole entry): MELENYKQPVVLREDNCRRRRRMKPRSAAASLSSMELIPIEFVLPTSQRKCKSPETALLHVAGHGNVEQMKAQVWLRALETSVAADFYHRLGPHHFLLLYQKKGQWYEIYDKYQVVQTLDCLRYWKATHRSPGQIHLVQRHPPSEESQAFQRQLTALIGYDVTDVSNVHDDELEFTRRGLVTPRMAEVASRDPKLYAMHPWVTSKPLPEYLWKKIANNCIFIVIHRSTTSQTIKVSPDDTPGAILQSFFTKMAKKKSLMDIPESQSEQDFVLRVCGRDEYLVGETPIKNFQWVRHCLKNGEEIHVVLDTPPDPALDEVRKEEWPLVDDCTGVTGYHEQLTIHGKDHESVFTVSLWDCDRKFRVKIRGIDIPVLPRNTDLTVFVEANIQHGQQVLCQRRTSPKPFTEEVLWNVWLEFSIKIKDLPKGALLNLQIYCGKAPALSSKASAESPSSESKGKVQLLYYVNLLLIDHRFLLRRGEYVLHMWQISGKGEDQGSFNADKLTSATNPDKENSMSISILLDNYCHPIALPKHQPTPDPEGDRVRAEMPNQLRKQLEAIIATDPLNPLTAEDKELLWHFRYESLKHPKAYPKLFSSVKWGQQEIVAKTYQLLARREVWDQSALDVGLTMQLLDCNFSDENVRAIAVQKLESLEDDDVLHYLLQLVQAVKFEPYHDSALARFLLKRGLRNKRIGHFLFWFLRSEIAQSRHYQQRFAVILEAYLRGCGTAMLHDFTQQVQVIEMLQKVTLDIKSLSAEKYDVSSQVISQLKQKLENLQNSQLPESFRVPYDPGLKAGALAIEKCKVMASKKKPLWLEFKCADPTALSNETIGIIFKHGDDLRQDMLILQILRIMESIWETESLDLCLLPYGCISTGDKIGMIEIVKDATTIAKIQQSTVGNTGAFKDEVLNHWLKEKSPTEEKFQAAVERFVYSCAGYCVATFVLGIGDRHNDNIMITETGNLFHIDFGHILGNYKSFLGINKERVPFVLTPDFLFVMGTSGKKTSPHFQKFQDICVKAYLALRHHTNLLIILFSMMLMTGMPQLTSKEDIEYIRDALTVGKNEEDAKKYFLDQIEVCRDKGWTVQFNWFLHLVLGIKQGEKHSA

The IC50 is the concentration that inhibits the measured activity by half. With `Cc1ccc(S(=O)(=O)N[C@H]2CC[C@H](O)CC2)cc1-c1cnc2c(N)nc(-c3ccc(F)cc3)cn12` [Example 20, 3-[8-Amino-6-(4-fluorophenyl)imidazo[1,2-a]pyrazin-3-yl]-N-(trans-4-hydroxycyclohexyl)-4-methylbenzenesulfonamide], the IC50 in test [1] (Homo sapiens), in test [2] and in test [3] was less than 100 nM in each case.
Regarding `Cc1ccc(S(=O)(=O)N[C@H]2CC[C@H](O)CC2)cc1-c1cnc2c(N)nc(-c3cccc(F)c3)cn12` [Example 21, 3-[8-Amino-6-(3-fluorophenyl)imidazo[1,2-a]pyrazin-3-yl]-N-(trans-4-hydroxycyclohexyl)-4-methylbenzenesulfonamide], the concentration for half-maximal inhibition (IC50) in test [1] (Homo sapiens), in test [2] and in test [3] was less than 100 nM throughout.
Regarding `Cc1ccc(S(=O)(=O)N[C@H]2CC[C@H](O)CC2)cc1-c1cn2cc(-c3ccccc3F)nc(N)c2n1` [Example 22, 3-[8-Amino-6-(2-fluorophenyl)imidazo[1,2-a]pyrazin-2-yl]-N-(trans-4-hydroxycyclohexyl)-4-methylbenzenesulfonamide], the IC50 in test [1], in test [2] and in test [3] was less than 100 nM each time.
In the case of `Cc1ccc(S(=O)(=O)N[C@H]2CC[C@H](O)CC2)cc1-c1cnc2c(N)nc(-c3ccccc3)cn12` [Example 23, 3-[8-Amino-6-phenylimidazo[1,2-a]pyrazin-3-yl]-N-(trans-4-hydroxycyclohexyl)-4-methylbenzenesulfonamide], the 50% inhibitory concentration (IC50) in test [1] (Homo sapiens), in test [2] and in test [3] was less than 100 nM each time.
Consider `Cc1ccc(S(=O)(=O)N[C@H]2CC[C@H](O)CC2)cc1-c1cn2cc(-c3ccc(C#N)cc3)nc(N)c2n1` [Example 24, 3-[8-Amino-6-(4-cyanophenyl)imidazo[1,2-a]pyrazin-2-yl]-N-(trans-4-hydroxycyclohexyl)-4-methylbenzenesulfonamide], for which the IC50 in test [1] is 100 to 500 nM; in test [2], less than 100 nM; in test [3], less than 100 nM.
Take `Cc1ccc(S(=O)(=O)N[C@H]2CC[C@H](O)CC2)cc1-c1cnc2c(N)nc(-c3ccncc3)cn12` [Example 25, 3-(8-Amio-6-pyridin-4-ylimidazo[1,2-a]pyrazin-3-yl)-N-(trans-4-hydroxycyclohexyl)-4-methylbenzenesulfonamide]: the half-inhibitory concentration (IC50) was 100 to 500 nM in test [1] (Homo sapiens), 100 to 500 nM in test [2] and less than 100 nM in test [3].
As for `Cc1ccc(S(=O)(=O)N[C@H]2CC[C@H](O)CC2)cc1-c1cnc2c(N)nc(-c3cccnc3)cn12` [Example 26, 3-(8-Amino-6-pyridin-3-ylimidazo[1,2-a]pyrazin-3-yl)-N-(trans-4-hydroxycyclohexyl)-4-methylbenzenesulfonamide], the values for the IC50 in test [1] (Homo sapiens), in test [2] and in test [3] were 100 to 500 nM, less than 100 nM and less than 100 nM, respectively.
Regarding `Cc1ccc(S(=O)(=O)N[C@H]2CC[C@H](O)CC2)cc1-c1cnc2c(N)nc(-c3cccs3)cn12` [Example 27, 3-[8-Amino-6-(2-thienyl)imidazo[1,2-a]pyrazin-3-yl]-N-(trans-4-hydroxycyclohexyl)-4-methylbenzenesulfonamide], the IC50 in test [1] (Homo sapiens) was less than 100 nM; in test [2], 100 to 500 nM; in test [3], less than 100 nM.
In the case of `Cc1ccc(S(=O)(=O)N[C@H]2CC[C@H](O)CC2)cc1-c1cnc2c(N)nc(-c3ccnn3C)cn12` [Example 28, 3-[8-Amino-6-(1-methyl-1H-pyrazol-5-yl)imidazo[1,2-a]pyrazin-3-yl]-N-(trans-4-hydroxycyclohexyl)-4-methylbenzenesulfonamide], the IC50 in test [1] (Homo sapiens) is 100 to 500 nM; in test [2] it was 100 to 500 nM; in test [3] it was less than 100 nM.
For the compound `Cc1ccc(S(=O)(=O)N[C@H]2CC[C@H](O)CC2)cc1-c1cnc2c(N)nc(-c3cnn(C)c3)cn12` [Example 29, 3-[8-Amino-6-(1-methyl-1H-pyrazol-4-yl)imidazo[1,2-a]pyrazin-3-yl]-N-(trans-4-hydroxycyclohexyl)-4-methylbenzenesulfonamide], the IC50 in test [1] (Homo sapiens) is more than 1000 nM; in test [2] it was 100 to 500 nM; in test [3], less than 100 nM.
Turning to `COc1cccc(-c2cn3c(-c4cc(S(=O)(=O)N[C@H]5CC[C@H](O)CC5)ccc4C)cnc3c(N)n2)c1F` [Example 30, 3-[8-Amino-6-(2-fluoro-3-methoxyphenyl)imidazo[1,2-a]pyrazin-3-yl]-N-(trans-4-hydroxycyclohexyl)-4-methylbenzenesulfonamide], the IC50 in test [1] (Homo sapiens), in test [2] and in test [3] was less than 100 nM each time.
For the compound `CNC(=O)c1ccc(F)c(-c2cn3c(-c4cc(S(=O)(=O)N[C@H]5CC[C@H](O)CC5)ccc4C)cnc3c(N)n2)c1` [Example 31, 3-[8-Amino-3-(5-{[(trans-4-hydroxycyclohexyl)amino]sulfonyl}-2-methylphenyl)imidazo[1,2-a]pyrazin-6-yl]-4-fluoro-N-methylbenzamide], the concentration for half-maximal inhibition (IC50) is more than 1000 nM in test [1] (Homo sapiens), less than 100 nM in test [2] and less than 100 nM in test [3].
Consider `Cc1ccc(S(=O)(=O)N[C@H]2CC[C@H](O)CC2)cc1-c1cnc2c(N)nc(-c3ccc(CO)cc3F)cn12` [Example 32, 3-{8-Amino-6-[2-fluoro-4-(hydroxymethyl)phenyl]imidazo[1,2-a]pyrazin-3-yl}-N-(trans-4-hydroxycyclohexyl)-4-methylbenzenesulfonamide], for which the IC50 in test [1] (Homo sapiens), in test [2] and in test [3] was less than 100 nM in each case.
Take `Cc1ncc(-c2cn3c(-c4cc(S(=O)(=O)N[C@H]5CC[C@H](O)CC5)ccc4C)cnc3c(N)n2)s1` [Example 35, 3-[8-Amino-6-(2-methylthiazol-5-yl)imidazo[1,2-a]pyrazin-3-yl]-N-(trans-4-hydroxycyclohexyl)-4-methylbenzenesulfonamide]: the IC50 in test [1] (Homo sapiens) was less than 100 nM; in test [2], 100 to 500 nM; in test [3] it was less than 100 nM.
As to `CNc1nc(-c2ccccc2F)cn2c(-c3cc(S(=O)(=O)N[C@H]4CC[C@H](O)CC4)ccc3C)cnc12` [Example 36, 3-[6-(2-Fluorophenyl)-8-(methylamino)imidazo[1,2-a]pyrazin-3-yl]-N-(trans-4-hydroxycyclohexyl)-4-methylbenzenesulfonamide trifluoroacetate], the IC50 in test [1] (Homo sapiens), in test [2] and in test [3] was less than 100 nM in each case.
For the compound `Cc1cn2c(-c3cc(S(=O)(=O)N[C@H]4CC[C@H](O)CC4)ccc3C)cnc2c(N)n1` [Example 37, 3-(8-Amino-6-methylimidazo[1,2-a]pyrazin-3-yl)-N-(trans-4-hydroxycyclohexyl)-4-methylbenzenesulfonamide], the IC50 in test [1] (Homo sapiens) was 100 to 500 nM; in test [2], less than 100 nM; in test [3], less than 100 nM.
For `CCc1cn2c(-c3cc(S(=O)(=O)N[C@H]4CC[C@H](O)CC4)ccc3C)cnc2c(N)n1` [Example 38, 3-(8-Amino-6-ethylimidazo[1,2-a]pyrazin-3-yl)-N-(trans-4-hydroxycyclohexyl)-4-methylbenzenesulfonamide], the half-maximal inhibitory concentration (IC50) in test [1] (Homo sapiens), in test [2] and in test [3] was less than 100 nM in each case.
Regarding `Cc1ccc(S(=O)(=O)N[C@H]2CC[C@H](O)CC2)cc1-c1cnc2c(N)ncnn12` [Example 39, 3-(4-Aminoimidazo[2,1-f][1,2,4]triazin-7-yl)-N-(trans-4-hydroxycyclohexyl)-4-methylbenzenesulfonamide], the IC50 is 100 to 500 nM in test [1] (Homo sapiens), 100 to 500 nM in test [2] and less than 100 nM in test [3].
On to `Cc1ccc(-c2cnc3c(N)nccn23)cc1S(=O)(=O)N[C@H]1CC[C@H](O)CC1` [Example 41, 5-(8-Aminoimidazo[1,2-a]pyrazin-3-yl)-N-(trans-4-hydroxycyclohexyl)-2-methylbenzenesulfonamide], for which the IC50 in test [1] (Homo sapiens) is more than 1000 nM; in test [2], 100 to 500 nM; in test [3], less than 100 nM.
As for `Nc1nccn2c(-c3cc(S(=O)(=O)N[C@H]4CC[C@H](O)CC4)ccc3F)cnc12` [Example 42, 3-(8-Aminoimidazo[1,2-a]pyrazin-3-yl)-4-fluoro-N-(trans-4-hydroxycyclohexyl)benzenesulfonamide], the half-inhibitory concentration (IC50) in test [1] (Homo sapiens) is 500 to 1000 nM; in test [2] it was 500 to 2000 nM; in test [3], less than 100 nM.
